Source: patent US12643871B2, “Aryl formamide compound containing chiral sulfur oxide or salt thereof, preparation method, herbicidal composition and use thereof” (Qingdao Kingagroot Chemical Compound Co., Ltd., priority 2019, dated 2026)

Tests used:
Assay in all cases: Weeding effect in post-emergence stage
Assay type in all cases: in vivo
Conditions in all cases: 250 g/ha; 2 leaf stage; 15 days after application; fresh weight control rate
[1] = system: Echinochloa crusgali
Method in brief: (§1)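 Pot-grown weeds sprayed post-emergence at the 2-leaf stage, 2 weeks after sowing, with compound in acetone/Tween 80 plus 1.5 L/ha methyl oleate concentrate at 500–15 g/ha. Fresh-weight growth control scored after 15 days in greenhouse, mean of three replicates, graded levels 0–5 (5: >85%, 0: <5%).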

[2] = system: Amaranthus retroflexus
Method in brief: as §1

[3] = system: Setaria viridis
Method in brief: as §1

[4] = system: Abutilon theophrasti
Method in brief: as §1

[5] = system: Digitaria sanguinalis
Method in brief: as §1

Row | SMILES | weeding effect in post-emergence stage, activity level (growth control rate), Echinochloa crusgali [1] | weeding effect in post-emergence stage, activity level (growth control rate), Amaranthus retroflexus [2] | weeding effect in post-emergence stage, activity level (growth control rate), Setaria viridis [3] | weeding effect in post-emergence stage, activity level (growth control rate), Abutilon theophrasti [4] | weeding effect in post-emergence stage, activity level (growth control rate), Digitaria sanguinalis [5]
1 | COCCC[S@@+]([O-])c1c(C(F)(F)F)ccc(C(=O)Nc2nnc(C)o2)c1F [Compound 75] | 5 (Level 5: growth control rate is above 85%) | 5 (Level 5: growth control rate is above 85%) | 5 (Level 5: growth control rate is above 85%) | 5 (Level 5: growth control rate is above 85%) | 5 (Level 5: growth control rate is above 85%)
2 | Cc1nnc(NC(=O)c2ccc(C(F)(F)F)c([S@+]([O-])CCOC(F)F)c2F)o1 [Compound 164] | 5 (Level 5: growth control rate is above 85%) | 5 (Level 5: growth control rate is above 85%) | 5 (Level 5: growth control rate is above 85%) | 5 (Level 5: growth control rate is above 85%) | 5 (Level 5: growth control rate is above 85%)
3 | Cc1nnc(NC(=O)c2ccc(C(F)(F)F)c([S@+]([O-])CCOC(F)(F)F)c2F)o1 [Compound 165] | 5 (Level 5: growth control rate is above 85%) | 5 (Level 5: growth control rate is above 85%) | 5 (Level 5: growth control rate is above 85%) | 5 (Level 5: growth control rate is above 85%) | 5 (Level 5: growth control rate is above 85%)
4 | CCC(=O)[S+]([O-])c1c(C(F)(F)F)ccc(C(=O)Nc2nnc(C)o2)c1F (stereo not shown) [Compound 167] | 5 (Level 5: growth control rate is above 85%) | 5 (Level 5: growth control rate is above 85%) | 5 (Level 5: growth control rate is above 85%) | 5 (Level 5: growth control rate is above 85%) | 5 (Level 5: growth control rate is above 85%)
5 | Cc1nnc(NC(=O)c2ccc(C(F)(F)F)c([S@@+]([O-])C(=O)CC(F)(F)F)c2F)o1 [Compound 169] | 5 (Level 5: growth control rate is above 85%) | 5 (Level 5: growth control rate is above 85%) | 5 (Level 5: growth control rate is above 85%) | 5 (Level 5: growth control rate is above 85%) | 5 (Level 5: growth control rate is above 85%)
6 | CSC[S@+]([O-])c1c(C(F)(F)F)ccc(C(=O)Nc2nnc(C)o2)c1F [Compound 203] | 5 (Level 5: growth control rate is above 85%) | 5 (Level 5: growth control rate is above 85%) | 5 (Level 5: growth control rate is above 85%) | 5 (Level 5: growth control rate is above 85%) | 5 (Level 5: growth control rate is above 85%)
7 | CSCC[S@@+]([O-])c1c(C(F)(F)F)ccc(C(=O)Nc2nnc(C)o2)c1F [Compound 204] | 5 (Level 5: growth control rate is above 85%) | 5 (Level 5: growth control rate is above 85%) | 5 (Level 5: growth control rate is above 85%) | 5 (Level 5: growth control rate is above 85%) | 5 (Level 5: growth control rate is above 85%)
8 | COc1c(C(=O)Nc2nnc(C)o2)ccc(C(F)(F)F)c1[S@+]([O-])C(C)C [Compound 307] | 5 (Level 5: growth control rate is above 85%) | 5 (Level 5: growth control rate is above 85%) | 5 (Level 5: growth control rate is above 85%) | 5 (Level 5: growth control rate is above 85%) | 5 (Level 5: growth control rate is above 85%)
9 | COc1c(C(=O)Nc2nnc(C)o2)ccc(C(F)(F)F)c1[S@+]([O-])CCC(C)(C)C [Compound 309] | 5 (Level 5: growth control rate is above 85%) | 5 (Level 5: growth control rate is above 85%) | 5 (Level 5: growth control rate is above 85%) | 5 (Level 5: growth control rate is above 85%) | 5 (Level 5: growth control rate is above 85%)
10 | C=CCC[S@@+]([O-])c1c(C(F)(F)F)ccc(C(=O)Nc2nnc(C)o2)c1OC [Compound 312] | 5 (Level 5: growth control rate is above 85%) | 5 (Level 5: growth control rate is above 85%) | 5 (Level 5: growth control rate is above 85%) | 5 (Level 5: growth control rate is above 85%) | 5 (Level 5: growth control rate is above 85%)
11 | CC=CC[S+]([O-])c1c(C(F)(F)F)ccc(C(=O)Nc2nnc(C)o2)c1OC (stereo not shown) [Compound 313] | 5 (Level 5: growth control rate is above 85%) | 5 (Level 5: growth control rate is above 85%) | 5 (Level 5: growth control rate is above 85%) | 5 (Level 5: growth control rate is above 85%) | 5 (Level 5: growth control rate is above 85%)
12 | C#CC[S@@+]([O-])c1c(C(F)(F)F)ccc(C(=O)Nc2nnc(C)o2)c1OC [Compound 314] | 5 (Level 5: growth control rate is above 85%) | 5 (Level 5: growth control rate is above 85%) | 5 (Level 5: growth control rate is above 85%) | 5 (Level 5: growth control rate is above 85%) | 5 (Level 5: growth control rate is above 85%)
13 | C#CCC[S@@+]([O-])c1c(C(F)(F)F)ccc(C(=O)Nc2nnc(C)o2)c1OC [Compound 315] | 5 (Level 5: growth control rate is above 85%) | 5 (Level 5: growth control rate is above 85%) | 5 (Level 5: growth control rate is above 85%) | 5 (Level 5: growth control rate is above 85%) | 5 (Level 5: growth control rate is above 85%)
14 | CC#CC[S@@+]([O-])c1c(C(F)(F)F)ccc(C(=O)Nc2nnc(C)o2)c1OC [Compound 316] | 5 (Level 5: growth control rate is above 85%) | 5 (Level 5: growth control rate is above 85%) | 5 (Level 5: growth control rate is above 85%) | 5 (Level 5: growth control rate is above 85%) | 5 (Level 5: growth control rate is above 85%)
